Here are results for five compounds from patent US20210215694A1, “FILM OF CHITOSAN AND A DEVICE COMPRISING THE SAME DEPOSITED ON A SUBSTRATE AND USES THEREOF” (priority 2018, published 2021).

One series deals with UTI 687 cells. In words: Cell death detection with propidium iodide stain on chitosan χ1. The conditions noted are these: 3 mg/L, 50 μL/mL of PI. Type of series: cell-based, Escherichia coli. As for the experimental part: Following the protocol described in material and methods, UTI 687 cells were contacted with chitosan χ1 surface. Before acquisition, channel was rinsed with LB supplemented with 3 mg/L of ETP and 50 μL/mL of PI (FIG. 11B).

The next series has as its system UTI 227. In words: Dose-dependent answer: time for cell death. Type of series: cell-based, Escherichia coli. As to conditions: different concentrations. As for the experimental part: (§1) Dose-dependent answer. Ertapenem (ETP) is an antibiotic used in the medical field in order to determine MIC. ETP was tested at different concentrations on UTI 227 and for each cell observed, the time for cell death was quantified (FIGS. 7B and 7C). […] Similarly, UTI 687 was contacted with different concentration of mecillinam (MEC), and the cell width was quantified.

The test system of series [1] is UTI227. The experiment in a line: CMI by Vitek. Format: cell-based, Escherichia coli. How it is done:
(§2) Minimum inhibitory concentration. Several experiments were performed with different ETP concentrations added to UTI 227 cells.

In series [2] the test system is UTI227. As to conditions: for Outcome: UTI227. As for the experimental part: CMI determination. Different channels were prepared simultaneously with the same cell suspension. Antibiotic was prepared at different concentrations (one channel contained only LB as a control) and added to channel just before image acquisition: each channel contain a different antibiotic concentration. A picture was taken every 2 or 3 minutes in each channel. At the end of the acquisition we determined if concentrations tested induced cell death or not.
as §2

Series [3] concerns UTI 687. The experiment in a line: Antibiotic susceptibility from blood culture on chitosan χ1. Format: cell-based, Escherichia coli. The conditions noted are these: UTI 687 grown in blood culture vial. How it is done:
Antibiotic susceptibility from blood culture. UTI 687 was cultivated in LB medium and then diluted to obtain a cell concentration close to the one find in blood during septicemia (final concentration: 5 CFU/ml). The suspension was then inoculated in culture vial for blood culture. After over-night culture (agitation, 37° C.), culture suspension was diluted in LB media for a final OD=0.01. Cells are then prepared as describe in material and method to determine cell susceptibility to ETP.
Antibiotic susceptibility from blood culture. […] These debris probably originate from blood culture media. However, it was possible to determine a CMI: CMIχ1≤1, which is coherent with the expected values.

The subject of the next series is K12 cells. As to conditions: K12 on commercial chitosan; 50 μL/mL PI; after 30 seconds. As for the experimental part:
Propidium iodide (PI) is used as a DNA stain which cannot cross the membrane of live cells, making it useful to differentiate dead, dying and healthy cells. K12 cells were immobilized to commercial chitosan on microfluidic chamber (channels in PDMS) in presence or absence of EtOH 70%. Channels were rinsed with LB, 50 μL/mL PI.

Series [4] has as its system UTI 687. The experiment in a line: Dose-dependent answer: cell width. Type of series: cell-based, Escherichia coli. The conditions noted are these: 2 mg/L, after 1 hour of contact. How it is done: as §1
The subject of series [5] is UTI698. The experiment in a line: CMI by Vitek. Format: cell-based, Escherichia coli. The source says: (§3) For each conditions, a similar result was obtained.
Series [6] deals with UTI704. The experiment in a line: CMI by Vitek. Type of series: cell-based, Escherichia coli.
From the text: as §3

Series [7] has as its system UTI698. In words: CMI (MIC) determination on chitosan χ1 channels. Format: cell-based, Escherichia coli.
From the text: as §3

In series [8] the test system is UTI704. The experiment in a line: CMI (MIC) determination on chitosan χ1 channels. Type of series: cell-based, Escherichia coli.
From the text: as §3

For series [9], the system named is UTI687. In words: CMI by Vitek. Format: cell-based, Escherichia coli.
From the text: as §3

Series [10] deals with UTI687. The experiment in a line: CMI (MIC) determination on chitosan χ1 channels. Type of series: cell-based, Escherichia coli.
From the text: as §3

A further series deals with K12. In words: Visualization of antibiotics susceptibility. Format: cell-based, Escherichia coli. As for the experimental part: Visualization of antibiotics susceptibility. Two channels were prepared with K12, identically. Before starting picture acquisition, one channel was rinsed with LB media, the other one with LB media supplemented with 100 μg/ml of ampicillin. […] Morphological changes were observed earlier than 1 hour and cell death imaged by lysis occurred right after 2 hours of incubation.

[11] abbreviates: concentration 1 (head mg/ml, title mg/L).
[12] abbreviates: concentration 2 (head mg/ml, title mg/L).
Setting [13] is: concentration 0.25 (head mg/ml, title mg/L).
[14] abbreviates: concentration 0.5 (head mg/ml, title mg/L).

The structures appear in SMILES notation. Read-outs that look alike come from different tables or passages of the source.

`C[C@@H](O)[C@H]1C(=O)N2C(C(=O)O)=C(S[C@@H]3CN[C@H](C(=O)Nc4cccc(C(=O)O)c4)C3)[C@H](C)[C@H]12` [Ertapenem]: the “Propidium iodide staining of cells” value in the series with UTI 687 cells was “some cells turned in red”. In addition, in the series with UTI 227, the “Time for cell death according to concentration” value is recorded as “significantly faster for a higher concentration”. The “CMI (Vitek)” value with UTI227 [1] and in the series with UTI227 [1] (listed as ETP) was no more than 0.5 mg/L each time. Besides, the “Concentration above which a cytotoxic effect was observed” value with UTI227 [2] is on record as “above 0.01 mg/L”. The Outcome result in the series on UTI227 [2] (concentration 0.01 (mg/L)) was “Growth”; in the series with UTI227 [2] (concentration 0.05 (mg/L)) it was “Death”; in the series on UTI227 [2] (concentration 0.1 (mg/L)), “Death”; with UTI227 [2] (concentration 0.125 (mg/L)), “Death”; with UTI227 [2] (concentration 0.25 (mg/L)) it was “Death”; in the series on UTI227 [2] (concentration 0.5 (mg/L)) it was “Death”. For the same compound, the Outcome entry in the series on UTI227 [2] (concentration 0.75 (mg/L)) is “Death”. The CMIχ1 in the series with UTI 687 [3] was no more than 1.

For `CCO` [EtOH 70%, EtOH], the “Propidium iodide fluorescence of cells” value with K12 cells is reported as “all the cells incubated with EtOH were fluorescent”.

`CC1(C)S[C@@H]2[C@H](/N=C/N3CCCCCC3)C(=O)N2[C@H]1C(=O)O` [Mecillinam, mecillinam]: the “CMI (Vitek)” value was 8 mg/L in the series on UTI227 [1], no more than 1 mg/L in the series on UTI698 [5] and 2 mg/L in the series on UTI704 [6]. Moreover, in the series with UTI 687 [4], the Cell width result is “An augmentation was observed”. Further, the Outcome result in the series on UTI227 [2] (concentration 4 (mg/L)) is reported as “Growth”; with UTI227 [2] (concentration 8 (mg/L)), “Death”; in the series on UTI227 [2] (concentration 12 (mg/L)), “Death”; in the series with UTI227 [2] (concentration 16 (mg/L)), “Death”; with UTI698 [7] (setting [11]) it was “Death”; with UTI698 [7] (setting [12]) it was “Death”. In addition, the Outcome entry in the series with UTI698 [7] (concentration 5 (head mg/ml, title mg/L)) is “Death”; with UTI704 [8] (setting [13]) it was “Growth”; in the series with UTI704 [8] (setting [14]) it was “Growth”; in the series on UTI704 [8] (setting [11]) it was “Growth”; with UTI704 [8] (setting [12]), “Death”. Besides, the results for the “CMI (measured)” value with UTI698 [7] (chitosan χ1) and with UTI704 [8] (chitosan χ1) were no more than 1 mg/L and no more than 2 mg/L, respectively.

With `CC1COc2c(N3CCN(C)CC3)c(F)cc3c(=O)c(C(=O)O)cn1c23` (stereo not shown) [Ofloxacin, ofloxacin], in the series on UTI687 [9], the “CMI (Vitek)” value amounted to 0.5 mg/L. Further, in the series on UTI687 [10] (chitosan χ1), the “CMI (measured)” value was no more than 0.25 mg/L. Also, the Outcome entry in the series on UTI687 [10] (setting [13]), in the series with UTI687 [10] (setting [14]), in the series with UTI687 [10] (setting [11]) and in the series with UTI687 [10] (setting [12]) was “Death” throughout.

For the compound `CC1(C)S[C@@H]2[C@H](NC(=O)[C@H](N)c3ccccc3)C(=O)N2[C@H]1C(=O)O` [ampicillin], the “Time at which morphological changes were observed” value with K12 (100 μg/ml) is listed as less than 1 hour. In the series on K12 (100 μg/ml, incubation), the “Time of cell death imaged by lysis” value was roughly 2 h. The “Effect on cells (in words)” value in the series on K12 (LB supplemented with 100 μg/ml) was “cells extended but did not divide”.
